According to patent US11504362B2, “Liquid dosage forms to treat cancer” (Exelixis, Inc., priority 2017, dated 2022):
Values joined by “and” are separate entries in the source; they are usually repeats but may differ in a detail not shown here. Equal entries are not always repeated.

Columns and labels:
[1] = rodent and non-rodent models; cited from earlier work
[2] = tested on: tumor models (human medullary thyroid cancer, human breast cancer, and rat glioma); settings: cited from earlier work
clinical = settings: human, in vivo
Description: Samples for 2 subjects were used for the investigation study. Therefore, only 6 subjects' PK profiles were determined using a radio-quantitation method.

VEGFR2 = VEGFR2 (Mus musculus, UniProt P35918); settings: administration to mice; Yakes, et al. 2011; cited from earlier work
[3] = Percentage of 14C radioactivity associated with erythrocytes in whole blood (ETR); assay type: in vivo, human; settings: single 175 mg oral dose
Description: To determine the percentage of radioactivity associated with erythrocytes in whole blood over time (ETR; calculated only for time points that whole blood is collected), the following was calculated:
The amount of ^14C radioactivity in plasma versus whole blood, adjusted for the hematocrit, at the specific time points of comparison (ETR=Xe/Xb=1−[Cp*(1−Hct)/Cb], where Xe and Xb stands for amount of radioactivity in erythrocyte or whole blood, respectively. Hematocrit values for Days-1, 2, and 4 were averaged for use in this calculation.
Blood samples (4 mL) for whole blood analysis of total radioactivity were collected within 15 minutes pre-dose and at 1, 2, 4, 8, 14, 24, and 72 hours post-dose. […] Samples collected were used to determine the percentage of radioactivity associated with erythrocytes in whole blood over time (calculated only for time points that whole blood was collected).
To determine the percentage of radioactivity associated with erythrocytes in whole blood over time (calculated only for time points where whole blood was collected), the following was calculated: the amount of radioactivity in plasma versus whole blood, adjusted for the hematocrit, at the specific time points of comparison (ETR=Xe/Xb=1−[Cp*(1-Hct)/Cb], where Cp stands for amount of radioactivity in plasma and Cb stands for the amount of radioactivity in blood and Hct stands for hematocrit value. Hematocrit values for Days-1, 2, and 4 were averaged for use in this calculation.

[4] = Mass balance: excretion and recovery of 14C total radioactivity in urine and feces; assay type: in vivo, human
Source text: Methodology: This was an open-label, single-dose, single-center, mass balance, Phase 1 study in healthy male volunteers. There were two study periods: a Screening Period, during which subjects underwent assessments to determine their eligibility for the study, and an On-study Period, which started on Day-1 (‘check-in’ day) when the subject was admitted to the Celerion clinic. […] However, subjects who were discharged from the clinic before Day 28 were required to return to the clinic for all remaining scheduled pharmacokinetic blood sampling and the Day 28 safety assessments. Subjects not meeting radioactivity release criteria by Day 28 could be asked to remain confined in the clinic or continue collection of urine and feces at home (returning samples to the clinic daily) for up to an additional 7 days (through to Day 35). Due to the fact that by Day 35 subjects had still not met release criteria, subjects were given the option of withdrawing from the study or completing the additional 14-day collection period (either in the clinic or as a daily visitor) with urine and feces collections and daily adverse event (AE) inquiries. All urine and fecal collections for all subjects stopped following the conclusion of the Day 49 scheduled events regardless of percentage of total radioactive dose recovered.
A single dose oral solution was administered at Hour 0 on Day 1 by the clinic staff. The dose was given via the scintillation vial. Following dosing, the scintillation vial was rinsed 3 times with room temperature distilled water, and the rinsate was administered to the subject. Residual radioactivity was determined for each dosing vial. The total volume of liquid administered including radiolabelled study drug, rinses, and water given for dosing (in addition to the rinses) was the same for each subject.
Mass balance was calculated as the percent of total administered radioactivity recovered in urine and feces. For the purpose of calculating mass balance, the amount of administered radioactivity was defined as the total radioactivity in the dosing solution minus any radioactivity lost due to emesis (if any occurred), adsorption to the dosing vial, etc.
Subjects were asked to empty their bladders within approximately 60 minutes prior to dosing for the pre-dose sample. Samples were collected during the 0 to 8 hours and 8 to 24 hours post-dose intervals, and then continuing in 24-hour intervals through Day 49. For subjects who met early release criteria, sampling could cease upon discharge from the clinic. […] One subject was released from the clinic following the 864 hour interval (Day 37) collection and no longer provided excreta samples.
Subjects were asked to bring a pre-dose stool sample with them at check-in (produced within 24 hours of check-in). Stools produced between subject check-in and dosing were collected for the pre-dose sample as well, and the sample produced nearest to dosing was used as the pre-dose sample. Post-dose stools were collected in 24-hour intervals through the morning of Day 49. For subjects who met early release criteria, sampling could cease upon discharge from the clinic. […] One subject was released from the clinic following the 864 hour interval (Day 37) collection and no longer provided excreta samples.
For each subject, multiple fecal specimens from each 24-hour interval were combined into a pre-weighed wide mouth polypropylene/polyethylene container and appropriately labeled. For each interval, the fecal sample was weighed to determine the final fecal weight. Each sample was homogenized into a slurry (approximately 20% suspension in water) from which the necessary aliquots were taken.
Mass balance was calculated as the percent of total administered radioactivity recovered in urine and feces. […]

[5] = single 175 mg oral dose, through 48 days, mean ± SD (% CV), n = 8

Chain of VEGFR2 (P35918 20-1345): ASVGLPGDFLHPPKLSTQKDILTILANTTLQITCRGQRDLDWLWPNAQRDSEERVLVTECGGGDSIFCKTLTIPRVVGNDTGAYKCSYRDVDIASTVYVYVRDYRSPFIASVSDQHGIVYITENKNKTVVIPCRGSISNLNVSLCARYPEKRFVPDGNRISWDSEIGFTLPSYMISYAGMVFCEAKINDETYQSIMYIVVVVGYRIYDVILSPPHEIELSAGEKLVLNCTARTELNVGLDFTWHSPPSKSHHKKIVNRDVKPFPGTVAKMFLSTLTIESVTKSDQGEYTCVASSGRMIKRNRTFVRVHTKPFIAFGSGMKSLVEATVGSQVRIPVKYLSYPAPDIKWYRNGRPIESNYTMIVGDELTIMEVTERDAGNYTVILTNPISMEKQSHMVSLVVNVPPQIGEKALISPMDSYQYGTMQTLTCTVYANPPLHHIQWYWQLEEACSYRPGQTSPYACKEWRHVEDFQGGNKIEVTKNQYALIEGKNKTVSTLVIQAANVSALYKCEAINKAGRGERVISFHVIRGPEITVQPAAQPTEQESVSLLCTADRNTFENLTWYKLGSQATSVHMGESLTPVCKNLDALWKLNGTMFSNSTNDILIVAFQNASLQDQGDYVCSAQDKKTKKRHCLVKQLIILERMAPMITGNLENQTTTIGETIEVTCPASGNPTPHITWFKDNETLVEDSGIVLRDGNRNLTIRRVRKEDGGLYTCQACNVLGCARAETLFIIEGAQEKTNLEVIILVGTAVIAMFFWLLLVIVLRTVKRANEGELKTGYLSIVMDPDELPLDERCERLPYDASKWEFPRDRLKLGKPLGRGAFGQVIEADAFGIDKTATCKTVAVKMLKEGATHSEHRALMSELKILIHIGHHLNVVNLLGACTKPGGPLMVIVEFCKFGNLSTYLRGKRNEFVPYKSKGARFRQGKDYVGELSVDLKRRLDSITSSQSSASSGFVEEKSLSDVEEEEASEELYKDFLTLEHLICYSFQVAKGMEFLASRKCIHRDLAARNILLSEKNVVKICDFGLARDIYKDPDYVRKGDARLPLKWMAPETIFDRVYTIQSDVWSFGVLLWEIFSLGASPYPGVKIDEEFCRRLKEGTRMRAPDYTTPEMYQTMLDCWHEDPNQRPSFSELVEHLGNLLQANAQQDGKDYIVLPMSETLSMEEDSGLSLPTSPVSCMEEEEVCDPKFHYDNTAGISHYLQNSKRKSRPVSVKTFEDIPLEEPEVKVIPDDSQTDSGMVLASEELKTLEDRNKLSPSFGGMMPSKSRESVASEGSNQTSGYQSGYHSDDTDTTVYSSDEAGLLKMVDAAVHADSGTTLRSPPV

For `COc1cc2nccc(Oc3ccc(NC(=O)C4(C(=O)Nc5ccc(F)cc5)CC4)cc3)c2cc1OC` [XL184, N-(4-{[6,7-bis(methyloxy)quinolin-4-yl]oxy}phenyl)-N′-(4-fluorophenyl)cyclopropane-1,1-dicarboxamide], the Oral bioavailability [1] is given as “orally bioavailable”, the Tumor regression ([2]; human medullary thyroid cancer, human breast cancer, and rat glioma models) is given as “marked tumor regression” and the Tumor growth inhibition ([2]; multiple tumor models) is given as “significant tumor growth inhibition”. The Immunohistochemistry findings ([2]; within 24 hours after administration) was “rapid effects on the endothelium, vascular breakdown, and tumor cell death”, the AUC0-24 (clinical) was 10700 ± 3170 h · ngEq/mL and the AUC0-72 (clinical) was 23800 ± 9340 h · ngEq/mL. The AUC0-inf (clinical) was 40300 ± 12300 h · ngEq/mL, the AUC0-t (clinical) was 38100 ± 12800 h · ngEq/mL and the concentration at 0.5 h (clinical; po, 175 mg, Plasma concentration, 0.50 h, individual subject, single 175 mg oral [14C]-XL184 (100 μCi), healthy male subjects, radio-quantitative method) was 283 ng/mL. It also gave a concentration at 5 h (clinical; po, 175 mg, Plasma concentration, 5.00 h, individual subject, single 175 mg oral [14C]-XL184 (100 μCi), healthy male subjects, radio-quantitative method) of 512 ng/mL, a concentration at 336 h (clinical; po, 175 mg, Plasma concentration, 336.00 h, individual subject, single 175 mg oral [14C]-XL184 (100 μCi), healthy male subjects, radio-quantitative method) of 10.3 ng/mL and a concentration at 72 h (clinical; po, 175 mg, Plasma concentration, individual subject, single 175 mg oral [14C]-XL184 (100 μCi), healthy male subjects, radio-quantitative method) of 101 ng/mL. The ke1 (clinical; male) was 0.0112 ± 0.0053 h⁻¹, the Tmax (clinical; male, Tmax) was ~1.99 h and the concentration at 72 h (clinical; male, po, 175 mg, Plasma concentration, Mean, N=6, single 175 mg oral [14C]-XL184 (100 μCi), healthy male subjects, radio-quantitative method) was 159 ng/mL. For the same compound, the concentration at 72 h (clinical; male, po, 175 mg, Plasma concentration, Median, N=6, single 175 mg oral [14C]-XL184 (100 μCi), healthy male subjects, radio-quantitative method) was 162 ng/mL, the “Inhibition of VEGFR2 in vivo” value (VEGFR2) was “dose-dependent inhibition” and the “Percentage of 14C Radioactivity Associated with Erythrocytes in Whole Blood (ETR)” value (“Percentage” below) ([3]; 1.00 h, Max (N=8)) was 14%. The “Percentage” value ([3]; 1.00 h, Mean (N=8)) was 7.08%, the “Percentage” value ([3]; 1.00 h, Median (N=8)) was 8.0% and the “Percentage” value ([3]; 1.00 h, Min (N=8)) was −3.4%. The “Percentage” value ([3]; 1.00 h, individual subjects) was 6.87% and 14.1% (2×) and −3.37% and 9.27% and 3.64% and 9.17% and 2.89%, the “Percentage” value ([3]; 2.00 h, GM, geometric mean (N=8)) was 7.30% and the “Percentage” value ([3]; 2.00 h, Max (N=8)) was 14%. The “Percentage” value ([3]; 2.00 h, Mean (N=8)) was 7.85%, the “Percentage” value ([3]; 2.00 h, Median (N=8)) was 6.7% and the “Percentage” value ([3]; 2.00 h, Min (N=8)) was 4.1%. For the same compound, the “Percentage” value ([3]; 2.00 h, individual subjects) was 6.90% and 13.7% and 6.40% and 4.14% and 5.07% and 5.90% and 10.3% and 10.5%, the “Percentage” value ([3]; 4.00 h, GM, geometric mean (N=8)) was 5.96% and the “Percentage” value ([3]; 4.00 h, Max (N=8)) was 9.0%. The “Percentage” value ([3]; 4.00 h, Mean (N=8)) was 6.40%, the “Percentage” value ([3]; 4.00 h, Median (N=8)) was 6.5% and the “Percentage” value ([3]; 4.00 h, Min (N=8)) was 2.1%. For the same compound, the “Percentage” value ([3]; 4.00 h, individual subjects) was 8.27% and 6.45% and 6.26% and 8.96% and 6.74% and 2.05% and 6.55% and 5.88%, the “Percentage” value ([3]; 8.00 h, GM, geometric mean (N=8)) was 10.9% and the “Percentage” value ([3]; 8.00 h, Max (N=8)) was 17%. The “Percentage” value ([3]; 8.00 h, Mean (N=8)) was 12.2%, the “Percentage” value ([3]; 8.00 h, Median (N=8)) was 13% and the “Percentage” value ([3]; 8.00 h, Min (N=8)) was 3.4%. The “Percentage” value ([3]; 8.00 h, individual subjects) was 12.8% and 17.1% and 13.6% and 17.2% and 12.0% and 3.37% and 15.4% and 6.19%, the “Percentage” value ([3]; 14.00 h, GM, geometric mean (N=8)) was 11.7% and the “Percentage” value ([3]; 14.00 h, Max (N=8)) was 17%. The “Percentage” value ([3]; 14.00 h, Mean (N=8)) was 12.3%, the “Percentage” value ([3]; 14.00 h, Median (N=8)) was 13% and the “Percentage” value ([3]; 14.00 h, Min (N=8)) was 6.1%. The “Percentage” value ([3]; 14.00 h, individual subjects) was 6.13% and 17.0% and 12.1% and 7.45% and 12.7% and 14.1% and 14.0% and 14.9%, the “Distribution of radioactivity between plasma and red blood cells” value [3] was “present primarily in plasma and not markedly associated with red blood cells” and the “Urine cumulative excretion of 14C total radioactivity” value (“Urine cumulative excretion” below) ([4]; Day 1 (24 hrs), individual subjects) was 2.32% and 4.30% and 3.22% and 7.81% and 3.81% and 3.89% and 4.78% and 3.38%. The “Urine cumulative excretion” value ([4]; Day 1 (24 hrs), mean) was 4.19%, the “Urine cumulative excretion” value ([4]; Day 2 (48 hrs), individual subjects) was 4.70% and 8.75% and 6.39% and 14.86% and 7.68% and 8.34% and 9.68% and 7.07% and the “Urine cumulative excretion” value ([4]; Day 2 (48 hrs), mean) was 8.43%. For the same compound, the “Urine cumulative excretion” value ([4]; Day 3 (72 hrs), individual subjects) was 7.26% and 13.09% and 9.22% and 20.34% and 11.00% and 12.23% and 13.67% and 9.75%, the “Urine cumulative excretion” value ([4]; Day 3 (72 hrs), mean) was 12.07% and the “Urine cumulative excretion” value ([4]; Day 4 (96 hrs), individual subjects) was 9.65% and 16.19% and 11.53% and 24.39% and 13.47% and 15.11% and 16.57% and 12.11%. The “Urine cumulative excretion” value ([4]; Day 4 (96 hrs), mean) was 14.88%, the “Urine cumulative excretion” value ([4]; Day 5 (120 hrs), individual subjects) was 11.74% and 18.60% and 13.44% and 27.04% and 15.59% and 17.46% and 18.91% and 13.86% and the “Urine cumulative excretion” value ([4]; Day 5 (120 hrs), mean) was 17.08%. For the same compound, the “Urine cumulative excretion” value ([4]; Day 6 ([…]), mean) was 18.72%, the “Urine cumulative excretion” value ([4]; Day 7 ([…]), mean) was 20.04% and the “Urine cumulative excretion” value ([4]; Day 8 (192 hrs), individual subjects) was 16.27% and 23.34% and 16.60% and 31.32% and 19.36% and 21.56% and 23.11% and 18.17%. The “Urine cumulative excretion” value ([4]; Day 8 (192 hrs), mean) was 21.22%, the “Urine cumulative excretion” value ([4]; Day 9 (216 hrs), individual subjects) was 17.35% and 24.24% and 17.22% and 32.02% and 20.33% and 22.44% and 23.99% and 19.02% and the “Urine cumulative excretion” value ([4]; Day 9 (216 hrs), mean) was 22.08%. The “Urine cumulative excretion” value ([4]; Day 10 (240 hrs), individual subjects) was 18.26% and 25.17% and 17.67% and 32.59% and 21.12% and 23.24% and 24.71% and 19.68%, the “Urine cumulative excretion” value ([4]; Day 10 (240 hrs), mean) was 22.81% and the “Urine cumulative excretion” value ([4]; Day 11 ([…]), mean) was 23.42%. The “Cumulative recovery of total radioactivity in feces” value [4, 5] was 53.79% of Dose, the “Cumulative recovery of total radioactivity in urine” value [4, 5] was 27.29% of Dose and the “Cumulative recovery of total radioactivity, total (urine and feces)” value ([4]; single 175 mg oral dose, within 48 days, mean ± SD (% CV), n = 8) was 81.09% of Dose.
